Assay results: article PMC4079752 (Clinical cancer research : an official journal of the …, 2014)

Molecular target: bacterial β-glucuronidase (E. coli GUS) (Escherichia coli, UniProt P05804)
Test: GUS enzyme activity assay with purified enzyme
Format: biochemical

Sequence of bacterial β-glucuronidase (E. coli GUS) (P05804 whole entry): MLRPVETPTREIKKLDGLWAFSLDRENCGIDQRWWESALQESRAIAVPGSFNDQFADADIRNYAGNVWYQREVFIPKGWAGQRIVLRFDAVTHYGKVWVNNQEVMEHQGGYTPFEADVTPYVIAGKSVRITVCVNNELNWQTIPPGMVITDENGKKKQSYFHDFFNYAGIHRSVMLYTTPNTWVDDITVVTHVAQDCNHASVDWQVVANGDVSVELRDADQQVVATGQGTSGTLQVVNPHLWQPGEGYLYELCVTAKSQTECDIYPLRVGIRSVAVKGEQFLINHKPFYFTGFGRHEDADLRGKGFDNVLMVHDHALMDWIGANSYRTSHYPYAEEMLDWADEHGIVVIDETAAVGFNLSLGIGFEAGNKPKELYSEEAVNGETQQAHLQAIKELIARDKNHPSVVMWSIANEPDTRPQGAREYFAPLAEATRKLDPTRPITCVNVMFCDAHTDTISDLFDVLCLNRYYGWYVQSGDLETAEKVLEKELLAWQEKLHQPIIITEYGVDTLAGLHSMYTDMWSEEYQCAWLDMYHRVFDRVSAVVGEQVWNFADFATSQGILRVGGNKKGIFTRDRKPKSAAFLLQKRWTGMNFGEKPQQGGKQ

Compound	IC50 [nM]
Oc1ccc2c(c1)Oc1ccc(Cl)cc1C(N1CCNCC1)=N2 [7-OHAMOX, 7-hydroxyamoxapine]	981 ± 183
Oc1ccc2c(c1)N=C(N1CCNCC1)c1cc(Cl)ccc1O2 [8-OHAMOX, 8-hydroxyamoxapine]	1990
